Experimental data reported in patent publication US5229367A, “Antiinflammatory peptide derived from human lipocortin V” (Sclavo S.p.A., priority 1991, dated 1993).
Converted amounts (≈) assume the structure as drawn. Like-named read-outs stand apart in the source and are kept apart here. Peptide text beside a SMILES is read from it.

Key:
[1] = test system: PLA2 induced oedema in rat paw; assay: Inhibition of PLA2 induced oedema in rat paw; format: in vivo; details: 2 mg/Kg (400 μg) co-injected with 5 μg PLA2 into paw, mean of five
Method: The oedema induced by PLA2 in the rat paw was generated according to the modified technique of Marshall et al. (J. Cell Biochem. suppl. 12 E: S325, 1985). Practically, the enzyme phospholipase A2 (Naja Mocambique), with a specific activity of about 400 units/mg protein, was dissolved into a physiological solution comprising calcium chloride 1 mM to a final concentration of 100 μg/ml. Thereafter samples (0.5 ml) of said solution were diluted 1:1 (v/v) either with a physiological solution as such, or with a physiological solution comprising the synthetic peptide 204-212 at a concentration of 8 mg/ml. The thus obtained solutions were incubated at 37° C. for 15 min. At the end of this incubation period, 0.1 ml of the solutions either comprising 5 μg of PLA2 only, or additionally 400 μg of the synthetic peptide, were injected into the right back paw of male Wistar rats of 200 g weight (thus the synthetic peptide 204- 212 was given at a 2 mg/Kg dose). The oedema in the paw was measured by means of a water plesthysomometer 30 and 60 min after the injection. The results reported in Table 4 confirm the in vivo PLA2 inhibiting effect of the peptide 204-212.

human fibroblasts = details: for Inhibition %: PGE2 release, bradykinin 1 μM
Method: Thereafter 0.2 ml of said suspension were placed into each well of a 96 flat bottomed well Cluster dish (firm Costar) and incubated at 37° C. for 72 hours. At the end of said period the cells were washed three times with 0.2 ml medium without serum and then incubated for 60 min at 37° C. as follows:
one part in 0.2 ml DMEM medium without bovine foetal serum (control);
Bradykinin (Sigma) was added thereafter to the final concentration of 1 μM to all the samples, and the incubation was maintained for a further 30 min. Finally the determination of PGE2 in the cell-free supernatants was carried out by making use of a radioimmunoassay.

[2] = test system: rat peritoneal leukocytes; assay: Inhibition of zymosan-stimulated prostaglandin E2 release in rat peritoneal leukocytes (radioimmunoassay); format: cell-based; details: peptide 100 μg/ml
Method: Rat peritoneal leukocytes were collected and purified as described by Parente and Flower (supra), then suspended in Krebs solution oxygenated with Carbogen at a final concentration of 1.10^6 cells/ml. Samples (1 ml) of said suspension were incubated in a thermostatic bath at 37° C. for 30 min in the presence (100 μg/ml) and in the absence (control) of the synthetic peptide 204-212. The incubation was maintained for a further 60 min at 37° C. after addition to each culture of 200 μg/ml Zymosan (activated by opsonization, i.e. incubated with mouse serum for 30 min at 37° C.). At the end of this time the cells were separated from the suspension by centrifugation at 10,000 rpm for 5 min using an Eppendorf centrifuge model 5414. The supernatants thus recovered were analysed by radioimmunoassay to monitor the prostaglandin E2 (PGE2) levels.

[3] = test system: carrageenin induced oedema in rat paw; assay: Inhibition of carrageenin induced oedema in rat paw; format: in vivo; details: for Oedema 3 hours Inhibition %: 3 hours after carrageenin; for Oedema 4 hours Inhibition %: 4 hours after carrageenin
Method: The carrageenin induced oedema in the rat paw was generated as disclosed by Parente et al. (Eur. J. Pharmacol., 99: 233-239, (1984). Practically 0.1 ml physiological solution comprising 1% (w/v) lambda carrageenin (Sigma) were injected subcutaneously into the right back paw of male Wistar rats weighing 200 g pretreated as follows: 5 rats (control) were locally inoculated with 100 μl sterile physiological solution; 5 rats were locally injected with 100 μl physiological solution comprising […] (respectively corresponding to a dose of 2 and 0.5 mg/Kg) synthetic peptide 204-212. The oedema was measured with a water plethysmometer 3 and 4 hours after the carrageenin injection. The results in Table 5 show an inhibition of the oedema due to the peptide 204-212 and moreover that the extent of the inhibition is dose-dependent.

[4] = target: T1, phospholipase A2 (pig pancreas phospholipase preparation) (Sus scrofa, UniProt P00592); assay: Inhibition of PLA2 induced contractions in rat stomach strip; details: peptide 20 μg/ml, 30 min; PLA2 4.4 μg/ml; mean of four samples
T1 construct: pig pancreas phospholipase preparation from Sigma; purchased Sigma; host or cells: pig pancreas (tissue-derived preparation)
Method: The rat stomach bottom strip was prepared as originally described by Vane (Br. J. Pharmacol., 12: 344-349, 1957) and suspended in a small bath for resected organs, thermostated at 37° in Krebs solution. After two hours stabilisation in said bath, the stomach reacts to phospholipase A2 stimulation (pig pancreas phospholipase preparation from Sigma) by contracting. These contractions are recorded by means of an isotonic transductor on recorder (Firm Basile). The contracting effect of the PLA2 is concentration-dependent and a concentration of 4.4 μg/ml was used in the experiments with the peptide 204-212. The experiments were carried out as follows:
a) estimation of the stomach contracting effect by the PLA2 at the final concentration of 4.4 μg/ml (control value)
b) after thoroughly washing the strip, peptide (I) was added at the concentration of 20 μg/ml and the effect of the PLA2 was estimated again after 30 min (sample).

T1 sequence (P00592 23-146): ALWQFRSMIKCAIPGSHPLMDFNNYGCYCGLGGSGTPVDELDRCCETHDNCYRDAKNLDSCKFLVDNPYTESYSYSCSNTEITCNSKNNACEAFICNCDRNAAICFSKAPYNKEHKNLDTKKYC

## CC(C)C[C@H](NC(=O)[C@H](Cc1c[nH]cn1)NC(=O)[C@@H](N)CO)C(=O)N[C@@H](CCCNC(=N)N)C(=O)N[C@@H](CCCCN)C(=O)N[C@H](C(=O)N[C@@H](Cc1ccccc1)C(=O)N[C@@H](CC(=O)O)C(=O)N[C@@H](CCCCN)C(=O)O)C(C)C [Peptide 204-212, H-Ser-His-Leu-Arg-Lys-Val-Phe-Asp-Lys-X] (H-SHLRKVFDK-OH)
[1]; 30 min after injection
  Oedema 30 min: 25.4 ± 7.7
[1]; 60 min after injection
  Oedema 60 min: 25.4 ± 7.8
Human fibroblasts
  ED 50: 1.13 µg/mL (≈ 1 µM)
Human fibroblasts; 1 ng/ml
  Inhibition %: 0%
Human fibroblasts; 10 ng/ml
  Inhibition %: 16 ± 2%
Human fibroblasts; 100 ng/ml
  Inhibition %: 41 ± 7%
Human fibroblasts; 1 μg/ml
  Inhibition %: 43 ± 4%
Human fibroblasts; 10 μg/ml
  Inhibition %: 63 ± 7%
Human fibroblasts; 100 μg/ml
  Inhibition %: 94 ± 6%
[2]; PGE2 release
  Inhibition %: 49.8%
[2]; 200 μg/ml opsonized Zymosan, supernatant PGE2 level, mean of three samples plus standard error, control 253.7 + 22.8
  PGE2: 129.0 + 16.9
[3]; 0.5 mg/Kg local injection
  Oedema 3 hours Inhibition %: 22.7 ± 8.3%
  Oedema 4 hours Inhibition %: 13.7 ± 5.1%
[3]; 2.0 mg/Kg local injection
  Oedema 3 hours Inhibition %: 37.0 ± 3.3%
  Oedema 4 hours Inhibition %: 37.5 ± 10.1%
[4]
  inhibition at 20 µg/mL: 60.5%
